Source: patent US20150273020A1, “Hormone Normalization Therapy and Uses Therefor” (priority 2007, published 2015)

Columns and labels:
[1] = tested on: patient with diminished ovarian reserve; assay: Case of a low-responder patient: FSH needed to ovulate, with and without estradiol patch and low dose hCG; assay type: in vivo, human
Description: To ovulate a single follicle, they required a follicle stimulating hormone level of 18 IU/L, with a typical threshold value of FSH required for a regularly cycling young and healthy woman in the range of 5 IU/L or less. This patient was also characterized by their physician as a low responder to FSH, which refers to a patient who requires high follicle stimulating hormone doses to ovulate even a single follicle. […] In the first two menstrual cycles, the patient was treated using the method as described supra, with a high dose follicle stimulating hormone (FSH) at a total dosage of FSH at about 5,000 IU across the cycle with very high threshold dosage and threshold peak follicle stimulating hormone levels like that of an AMA person with high FSH, in the first cycle and second cycle to induce follicle growth to the ovulatory stage. In the third consecutive treatment cycle, the above-described regimen was supplemented with an estradiol patch delivering 17-beta estradiol for several days until the commencement of stimulation with FSH medication. The patch was then continued daily during the period of stimulated until the evening before expected hCG injection, when it was removed. This was designed to coincide to approximate the timing of the estradiol surge. […]

[2] = woman given daily FSH injections at a given dosage; cited from earlier work
[3] = tested on: follicular growth to ovulation; settings: Schoemaker study; cited from earlier work

follicle stimulating hormone
follicle stimulating hormone level required to ovulate a single follicle ([1]; COHS cycle, severe GnRHa suppression): 18 IU/L | total dosage of FSH across the cycle to induce follicle growth to the ovulatory stage ([1]; first and second cycles, without estradiol and hCG supplementation): about 5,000 IU | time for steady-state levels of FSH to be established [2]: 4 days | threshold level of serum FSH for follicular growth to ovulation [3]: 7.8 IU
